SMILES strings stand for the structures. Numbered stars: 1 amine (or outer) side, 2 acyl side, 3 side chain; on linkers, the order of the positions; unused ones are H or OH. Square brackets hold non-standard residues; d marks the D form. Peptide text beside a SMILES is read from it. * marks the point of attachment. DOTA = O=C(O)CN1CCN(CC(=O)O)CCN(CC(=O)*)CCN(CC(=O)O)CC1; X1 = O=C(C1CSC(c2nc3ccc(N[*:1])cc3s2)=N1)[*:2]; X2 = N#Cc1ccc2cc(OCCCN*)ccc2n1; SEt = CCS*

In one series the target is T1, legumain (Homo sapiens, UniProt Q99538).
T1 construct: purchased R&D Systems; host or cells: mouse myeloma cell line
T1 sequence (Q99538 18-323): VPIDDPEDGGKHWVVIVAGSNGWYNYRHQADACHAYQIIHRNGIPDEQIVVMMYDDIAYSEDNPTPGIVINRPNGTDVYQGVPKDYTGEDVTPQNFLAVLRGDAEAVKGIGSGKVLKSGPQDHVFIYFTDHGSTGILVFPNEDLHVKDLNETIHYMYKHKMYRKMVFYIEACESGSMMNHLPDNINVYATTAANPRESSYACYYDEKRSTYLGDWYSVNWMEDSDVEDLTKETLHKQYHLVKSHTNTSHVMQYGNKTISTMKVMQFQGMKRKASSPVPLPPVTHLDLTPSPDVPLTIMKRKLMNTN
In words: HPLC enzyme specificity assay of C-SNAF, legumain. The class given is biochemical. The following applies: 25 μM probe, 0.735 μg/ml enzyme, pH 5.5. The procedure: (§1) The specificity of C-SNAF towards other representative cysteine proteases such as caspase-7, caspase-9, cathepsin B, and legumain was examined.
(§2) Caspase (human, recombinant from E. coli) assays were performed for caspase-3 (4.9×10^−3 U; 7.35×10^−4 mg, Sigma), −7 (18.3 U; 7.35×10^−4 mg, Calbiochem), and −9 (0.3 U; 7.35×10^−4 mg, Calbiochem). All caspase assays were conducted in caspase buffer with 50 mM HEPES, 100 mM NaCl, 1 mM EDTA, 10 mM TCEP, 10% glycerol, and 0.1% CHAPS at pH 7.4. Cathepsin B (human liver; 0.27 U; 7.35×10^−4 mg, Calbiochem) and Legumain (human, recombinant from mouse myeloma cell line; >250 pmol/min/μg; 7.35×10^−4 mg, R&D Systems) were conducted in reaction buffer with 50 mM sodium acetate, 50 mM NaCl, 0.5 mM EDTA and 10 mM TCEP at pH 5.5. C-SNAF was diluted in the respective enzyme reaction buffer (25 μM, 1 mL) and remained at room temperature for 10 min, to which was then added the respective enzymes. Reactions were performed at 37° C., and monitored by HPLC hourly. The percentage conversion of the reaction was calculated based on the percentage of peak area of C-SNAF-cycl in the HPLC trace at 675 nm UV detection, which indicated the efficacy of enzyme cleavage of C-SNAF.

Series [1] in a line: Blood circulation and elimination in healthy nude mice. Conditions: 5 nmol i.v.
Series [2] concerns the target T2, recombinant human caspase-7 (Homo sapiens, UniProt P55210).
T2 construct: purchased Calbiochem; host or cells: E. coli
In words: HPLC enzyme specificity assay of C-SNAF, caspase-7. The class given is biochemical. The following applies: 25 μM probe, 0.735 μg/ml enzyme. The procedure:
as §1, §2

Series [3] relates to STS-induced apoptotic HeLa cells. In words: Flow cytometry of STS-induced apoptotic HeLa cells labeled with probes. The class given is cell-based, human. The procedure: Approximately 10^5 HeLa cells in 1 mL DMEM medium were seeded onto 12-well plates. […] For the inhibitor blocking experiment, the STS-treated cells were first incubated with the caspase inhibitor Z-VAD-fmk (50 μM, R&D Systems) for 30 min, and then 2 μM C-SNAF was added. All cells incubations were 24 h, followed by staining with FLICA (FAM) after trypsinization. After washing with PBS (1×) three times, the cell pellets were resuspended in 300 μL PBS and applied for flow cytometry analysis using the FITC and Cy5.5 channels. The cell number for each flow cytometry analysis was approximately 5000 to 10000, and the data was processed using FlowJo software.

The test system of series [4] is DOX-induced apoptotic HeLa cells. In words: Flow cytometry of DOX-induced apoptotic HeLa cells labeled with probes. The class given is cell-based, human. The following applies: 5 μM DOX, 2 μM probe, 24 h. The procedure:
For the DOX-induced apoptotic cells, HeLa cells in 12-well plates were co-incubated with DOX (5 μM) and 2 μM C-SNAF, L-ctrl and D-ctrl, or 2 μM C-SNAF together with 50 μM Z-VAD-fmk for 24 h. After washing with PBS (1×) three times, the cells pellets were resuspended in 300 μL PBS, and applied for flow cytometry analysis using the Cy5.5 channels. The cell number for each flow cytometry analysis was approximately 5×10^3 to 10^4, and the data was processed using FlowJo software.

For a further series, the target named is T3, caspase-9 (Homo sapiens, UniProt P55211).
T3 construct: purchased Calbiochem; host or cells: E. coli
T3 sequence (P55211 1-315 limits assumed): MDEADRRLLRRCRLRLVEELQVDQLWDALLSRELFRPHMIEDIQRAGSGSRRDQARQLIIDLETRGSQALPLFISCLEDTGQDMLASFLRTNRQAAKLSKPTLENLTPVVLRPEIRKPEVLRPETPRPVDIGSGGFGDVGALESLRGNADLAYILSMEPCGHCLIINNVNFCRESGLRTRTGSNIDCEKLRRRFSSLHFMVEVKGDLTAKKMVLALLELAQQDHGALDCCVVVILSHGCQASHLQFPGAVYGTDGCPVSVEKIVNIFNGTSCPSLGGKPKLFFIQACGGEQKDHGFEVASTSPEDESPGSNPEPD
In words: HPLC enzyme specificity assay of C-SNAF, caspase-9. The class given is biochemical. Conditions: 25 μM probe, 0.735 μg/ml enzyme. The procedure: as §1, §2

For the next series, the system named is caspase-3/7. Put plainly: HPLC analysis of C-SNAF reaction in apoptotic cell lysates. The class given is biochemical, human. The following applies: 5 μM, lysate of STS- and DOX-induced apoptotic HeLa or MDA-MB-231 cells. On the procedure:
To confirm the formation of the caspase-3/7-triggered intramolecular cyclization product C-SNAF-cycl in apoptotic cells, C-SNAF (5 μM) was incubated with both cell lysates and whole cells, and the products were analyzed by HPLC. […] However, more than 90% of C-SNAF was converted to C-SNAF-cycl in the lysate of STS- and DOX-induced apoptotic HeLa (FIG. 12A) or MDA-MB-231 cells, indicating the efficient intramolecular condensation initiated by caspase-3/7 in a complex cellular environment.
The culture medium was carefully removed and the cells were washed with cold 1×PBS. The cells were trypsinized to form cell pellets, and RIPA (RadioImmuno Precipitation Assay, sigma) buffer was added to cells using 100 μL of buffer per 4×10^6 cells. Then the cells were kept on ice for 0.5 h. The cell lysate was gathered, centrifuged at 14,000×g for 15 min at 4° C. The supernatant of the cell lysate was collected, and the caspase-3/7 activity in the lysate was determined by CASPASE-GLO® 3/7 assay. The cell lysate was diluted with caspase reaction buffer (2×, 1:1 diluted), and incubated with C-SNAF (5 μM) at 37° C. overnight and then injected into an HPLC system (Dionex) for analysis.

Another series concerns the target T4, caspase-3 (Homo sapiens, UniProt P42574).
T4 sequence (P42574 29-175 limits assumed): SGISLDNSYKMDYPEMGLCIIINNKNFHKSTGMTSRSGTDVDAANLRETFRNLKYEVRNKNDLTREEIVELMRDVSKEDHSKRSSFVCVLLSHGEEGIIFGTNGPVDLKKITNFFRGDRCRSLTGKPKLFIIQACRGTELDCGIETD
T4 sequence (P42574 176-277 limits assumed): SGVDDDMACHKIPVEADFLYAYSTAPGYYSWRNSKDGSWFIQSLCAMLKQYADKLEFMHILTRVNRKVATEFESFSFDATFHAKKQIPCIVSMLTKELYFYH
In words: T1 measurement of probe 15 with caspase-3. Format: biochemical. Further details: purchased Sigma; host or cells: E. coli. The following applies: probe 200 μM. On the procedure:
The enzyme specificity of probe 15 was studied by measuring the T1 value resulting from probe incubation (208 μM) with any of five relevant subcellular proteases (caspase-3, -7, -9, cathepsin B and legumain) in enzyme buffer. […] The reduced T1 value in solution was inhibited by the caspase inhibitor Z-VAD-fmk (50 μM).
Caspase (human, recombinant from E. coli) assays were performed for caspase-3 (4.9×10^−3 U; 7.35×10^−4 mg, Sigma), −7 (18.3 U; 7.35×10^−4 mg, Calbiochem), and −9 (0.3 U; 7.35×10^−4 mg, Calbiochem). All caspase assays were conducted in caspase buffer with 50 mM HEPES, 100 mM NaCl, 1 mM EDTA, 10 mM TCEP, 10% glycerol, and 0.1% CHAPS at pH 7.4.

The subject of a further series is HeLa cell pellets. In words: MRI T1 of HeLa cell pellets at 1 T. The following applies: 250 μM, 24 h. Format: cell-based, human. From the text:
Thus, higher caspase-3 activity in apoptotic cells can trap probe 15 inside cells, resulting in higher MRI contrast for cell apoptosis imaging.

T2 sequence (P55210 24-198 limits assumed): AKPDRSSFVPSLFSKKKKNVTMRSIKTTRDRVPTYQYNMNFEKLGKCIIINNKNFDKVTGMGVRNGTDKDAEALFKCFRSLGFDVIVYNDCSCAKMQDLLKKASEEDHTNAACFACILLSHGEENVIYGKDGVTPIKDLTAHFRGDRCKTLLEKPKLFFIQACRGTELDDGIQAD
T2 sequence (P55210 207-303 limits assumed): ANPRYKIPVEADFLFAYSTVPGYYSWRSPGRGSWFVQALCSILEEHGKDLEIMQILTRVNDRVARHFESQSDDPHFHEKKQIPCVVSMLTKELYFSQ

On to `CCSSC[C@@H](NC(=O)[C@H](CC(=O)O)NC(=O)[C@@H](NC(=O)[C@H](CCC(=O)O)NC(=O)[C@H](CC(=O)O)NC(C)=O)C(C)C)C(=O)N[C@@H](CCCCNC(=O)CCCCCN1C(=CC=CC=CC2=[N+](CC)c3ccc4c(S(=O)(=O)[O-])cc(S(=O)(=O)O)cc4c3C2(C)C)C(C)(C)c2c1ccc1c(S(=O)(=O)O)cc(S(=O)(=O)O)cc21)C(=O)Nc1ccc2nc(C3=N[C@@H](C(=O)NCCCOc4ccc5nc(C#N)ccc5c4)CS3)sc2c1` [C-SNAF], for which the activation by legumain result at legumain is recorded as “neither lysosomal cysteine proteases cathepsin B nor legumain could significantly activate”. In series [1], the blood half-life came out at 1.0 ± 0.45 h and the “time of nearly complete elimination after administration” value is listed as no more than 12 h. Also, the “selectivity of activation by caspase-7” value in series [2] was “high selectivity of the probe toward effector caspases-3 and -7”. The “labeling of FLICA-positive apoptotic cells” value in [3] (2 μM probe, STS-induced apoptotic HeLa) is “efficiently labeled”. Besides, the “increase in Cy5.5 fluorescence of apoptotic relative to viable cells” value in [3] (2 μM probe, STS-treated HeLa, flow cytometry) was roughly 13 fold. Moreover, in series [3] (Z-VAD-fmk 50 μM), the “effect of caspase inhibitor Z-VAD-fmk on the increased fluorescence” value is recorded as “inhibited by Z-VAD-fmk”. Besides, the “increase in Cy5.5 intensity of DOX-induced apoptotic cells compared to no probe or control probes” value in [4] was roughly 4 fold. On caspase-9, the “activity of caspase-9 towards probe” value is “essentially no activity”. For the same compound, in the series with caspase-3/7, the “C-SNAF converted to C-SNAF-cycl in lysate” value is given as “more than 90%”.

Take `CCSSCC(NC(=O)C(CC(=O)O)NC(=O)C(NC(=O)C(CCC(=O)O)NC(=O)C(CC(=O)O)NC(C)=O)C(C)C)C(=O)NC(CCCCNC(=O)CN1CCN(CC(=O)[O-])CCN(CC(=O)[O-])CCN(CC(=O)[O-])CC1)C(=O)Nc1ccc2nc(C3=NC(C(=O)NCCCOc4ccc5nc(C#N)ccc5c4)CS3)sc2c1.[Gd+3]` (stereo not drawn) [probe 15] (Ac-DEVDC(SEt)K(DOTA)[X1]-X2; configuration not given here): the “lowest caspase-3 concentration detected by T1 value measurements” value on caspase-3 was 5 nM. The “reduction of T1 value in STS-treated versus non-treated cell pellets” value in the series on HeLa cell pellets is given as “about 3 fold”.

These data come from patent US9642922B2, “Caspase-triggered nano-aggregation probes and methods of use” (The Board of Trustees of the Leland Stanford Junior …, priority 2013, dated 2017).
